# From ChEMBL document CHEMBL5380844, “Discovery of a Novel, Potent, Orally Active, and Safe Inhibitor Targeting Human Mitochondrial RNA Polymerase” (J Med Chem, 2023)
# Activity calls are given as the source filed them. The rule behind the calls is not given here.
# What was measured:
# [1] = tested on: A2780; assay: Induction of apoptosis in human A2780 cells assessed as late apoptotic cells at 50 nM incubated for 96 hrs by Annexin-V/FITC and PI staining based flow cytometry analysis (reference value: 3.79%); format: functional
# [2] = tested on: A2780; assay: Antitumor activity against human A2780 cells xenografted in BALB/c nude mouse model assessed as effect on heart 100 mg/kg, po measured after 27 days; format: functional, organism-based; conditions: time 27.0 day
# [3] = molecular target: Cytochrome P450 3A4 (Homo sapiens, UniProt P08684); assay: Inhibition of […] (unknown origin) using testosterone as substrate in presence of NADPH by LC/MS/MS analysis; format: ADME
# Sequence of Cytochrome P450 3A4 (P08684 whole entry): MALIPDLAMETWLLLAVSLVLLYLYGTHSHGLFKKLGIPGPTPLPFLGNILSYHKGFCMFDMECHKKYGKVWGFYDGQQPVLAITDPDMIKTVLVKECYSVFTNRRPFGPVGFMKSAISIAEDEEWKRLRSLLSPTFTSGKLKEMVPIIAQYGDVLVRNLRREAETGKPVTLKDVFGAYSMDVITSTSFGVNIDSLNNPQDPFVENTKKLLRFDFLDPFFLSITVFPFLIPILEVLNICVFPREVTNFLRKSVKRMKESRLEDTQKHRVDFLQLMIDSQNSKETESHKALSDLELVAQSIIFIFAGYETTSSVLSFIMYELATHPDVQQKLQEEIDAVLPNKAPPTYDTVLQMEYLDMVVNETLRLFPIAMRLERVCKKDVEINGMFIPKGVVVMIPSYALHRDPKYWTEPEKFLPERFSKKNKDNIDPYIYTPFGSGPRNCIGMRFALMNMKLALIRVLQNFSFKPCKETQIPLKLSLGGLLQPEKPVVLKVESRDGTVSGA
# [4] = tested on: A2780; assay: Induction of cell cycle arrest in human A2780 cells assessed as accumulation of cells at G1 phase at 50 nM measured after 96 hrs by PI staining based flow cytometry analysis (reference value: 80.81%); format: functional
# [5] = tested on: A2780; assay: Inhibition of colony formation in human A2780 cells at 500 nM incubated for 14 days by crystal violet staining based analysis; format: functional, cell-based; conditions: time 14.0 day
# [6] = molecular target: Cytochrome P450 2C19 (Homo sapiens, UniProt P33261); assay: Inhibition of CYP2C19 (unknown origin) using S-mephenytoin as substrate in presence of NADPH by LC/MS/MS analysis; format: ADME
# Sequence of Cytochrome P450 2C19 (P33261 whole entry): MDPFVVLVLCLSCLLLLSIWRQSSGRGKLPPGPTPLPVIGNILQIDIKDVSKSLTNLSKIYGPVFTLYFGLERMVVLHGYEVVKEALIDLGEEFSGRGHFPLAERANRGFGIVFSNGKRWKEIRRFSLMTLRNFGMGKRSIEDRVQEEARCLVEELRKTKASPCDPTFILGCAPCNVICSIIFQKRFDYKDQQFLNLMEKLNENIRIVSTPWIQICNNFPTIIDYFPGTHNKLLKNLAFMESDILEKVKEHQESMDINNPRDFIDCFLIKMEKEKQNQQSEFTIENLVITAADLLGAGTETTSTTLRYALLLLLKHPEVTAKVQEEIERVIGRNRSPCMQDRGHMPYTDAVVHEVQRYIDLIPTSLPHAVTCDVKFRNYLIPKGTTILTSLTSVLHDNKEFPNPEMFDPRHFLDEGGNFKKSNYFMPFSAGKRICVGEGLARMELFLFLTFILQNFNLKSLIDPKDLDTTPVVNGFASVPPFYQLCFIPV
# [7] = Toxicity in Balb/c mouse assessed as effect on spleen at 100 mg/kg by H and E staining based analysis; format: organism-based; conditions: in vivo
# [8] = Toxicity in Balb/c mouse assessed as effect on heart at 100 mg/kg by H and E staining based analysis; format: organism-based; conditions: in vivo
# [9] = tested on: A2780; assay: Induction of apoptosis in human A2780 cells assessed as increase in cleaved PARP cleavage level at upto 500 nM by immunoblot analysis; format: functional, cell-based
# [10] = Cmax in ICR mouse at 1 mg/kg, iv measured upto 24 hrs by LC-MS/MS analysis; format: ADME, organism-based; parameters: time < 24 hrs, dose 1 mg/kg, route iv; conditions: in vivo
# [11] = tested on: A2780; assay: Induction of intracellular ROS generation in human A2780 cells at 0 to 5 uM by DCFH-DA staining based microscopic analysis; format: functional, cell-based; conditions: dose 0-5 µM
# [12] = Efflux ratio of apparent permeability across basolateral to apical side over apical to basolateral side in human Caco2 cells at 3 uM incubated for 2 hrs by LC-MS/MS analysis; format: ADME, cell-based; conditions: Caco-2
# [13] = tested on: A2780; assay: Inhibition of mitochondrial transcript in human A2780 cells incubated for 12 hrs followed by compound removal and measured after 36 hrs by RT-qPCR analysis; format: functional, cell-based
# [14] = Acute toxicity in Balb/c mouse assessed as effect on kidney 100 mg/kg measured after 27 days by H and E staining based analysis; format: organism-based; conditions: in vivo, 648 h, time 27 day
# [15] = tested on: A2780; assay: Effect on 28S mRNA level in human A2780 cells by RT-qPCR analysis; format: functional, cell-based
# [16] = tested on: A2780; assay: Induction of mitochondrial membrane potential changes in human A2780 cells at upto 500 nM measured after 96 hrs by JC-1 staining based immunofluorescence assay; format: functional, cell-based
# [17] = Acute toxicity in Balb/c mouse assessed as effect on liver 100 mg/kg measured after 27 days by H and E staining based analysis; format: organism-based; conditions: in vivo, 648 h, time 27 day
# [18] = tested on: IMR-90; assay: Antiproliferative activity against human IMR-90 cells incubated for 168 hrs by SRB method; format: functional, cell-based; conditions: IMR-90, 168 h
# [19] = Inhibition of ND1 transcript level in human A2780 cells at 500 nM measured after 12 hrs by RT-qPCR analysis relative to control; format: functional
# [20] = tested on: A2780; assay: Antitumor activity against human A2780 cells xenografted in BALB/c nude mouse model assessed as effect on liver 100 mg/kg, po measured after 27 days; format: functional, organism-based; conditions: time 27.0 day
# [21] = tested on: NCI-H3122; assay: Antiproliferative activity against human NCI-H3122 cells incubated for 168 hrs by SRB method; format: functional, cell-based; conditions: NCI-H3122, 168 h
# [22] = Toxicity in Balb/c mouse assessed as effect on kidney at 100 mg/kg by H and E staining based analysis; format: organism-based; conditions: in vivo
# [23] = tested on: A2780; assay: Induction of apoptosis in human A2780 cells assessed as necrotic cells at 200 nM incubated for 96 hrs by Annexin-V/FITC and PI staining based flow cytometry analysis (reference value: 2.07%); format: functional
# [24] = tested on: A2780; assay: Induction of apoptosis in human A2780 cells assessed as late apoptotic cells at 100 nM incubated for 96 hrs by Annexin-V/FITC and PI staining based flow cytometry analysis (reference value: 3.79%); format: functional
# [25] = tested on: A2780; assay: Inhibition of MT-CO1 expression in human A2780 cells at 100 nM incubated for 12 hrs by RNA sequencing analysis; format: functional, cell-based
# [26] = MRT in ICR mouse at 10 mg/kg, po measured upto 24 hrs by LC-MS/MS analysis; format: ADME, organism-based; conditions: in vivo
# [27] = tested on: MIA PaCa-2; assay: Antiproliferative activity against human MIA PaCa-2 cells incubated for 168 hrs by SRB method; format: functional, cell-based; conditions: MIA PaCa-2, 168 h
# [28] = AUC (0 to infinity) in ICR mouse at 1 mg/kg, iv measured upto 24 hrs by LC-MS/MS analysis; format: ADME, organism-based; parameters: time < 24 hrs, dose 1 mg/kg, route iv; conditions: in vivo
# [29] = tested on: A549; assay: Antiproliferative activity against human A549 cells incubated for 168 hrs by SRB method; format: functional, cell-based; conditions: A549, 168 h
# [30] = tested on: A2780; assay: Induction of apoptosis in human A2780 cells assessed as necrotic cells at 50 nM incubated for 96 hrs by Annexin-V/FITC and PI staining based flow cytometry analysis (reference value: 2.07%); format: functional
# [31] = tested on: HeLa; assay: Antiproliferative activity against human HeLa cells incubated for 168 hrs by SRB method; format: functional, cell-based
# [32] = tested on: MDA-MB-468; assay: Antiproliferative activity against human MDA-MB-468 cells incubated for 168 hrs by SRB method; format: functional, cell-based; conditions: MDA-MB-468, 168 h
# [33] = tested on: A2780; assay: Induction of cell cycle arrest in human A2780 cells assessed as accumulation of cells at G1 phase at 100 nM measured after 96 hrs by PI staining based flow cytometry analysis (reference value: 80.81%); format: functional
# [34] = tested on: A2780; assay: Induction of cell cycle arrest in human A2780 cells assessed as accumulation of cells at G2 phase at 100 nM measured after 96 hrs by PI staining based flow cytometry analysis (reference value: 4.49%); format: functional
# [35] = tested on: A2780; assay: Inhibition of mitochondrial transcript in human A2780 cells incubated for 12 hrs followed by compound removal and measured after 24 hrs by RT-qPCR analysis; format: functional, cell-based
# [36] = tested on: HepG2; assay: Antiproliferative activity against human HepG2 cells incubated for 168 hrs by SRB method; format: functional, cell-based; conditions: HepG2, 168 h
# [37] = tested on: A2780; assay: Effect on POLRMT mRNA level in human A2780 cells by RT-qPCR analysis; format: functional, cell-based
structure (smiles),measurement,setting,value
Cc1ccc(-c2cc(=O)oc3cc(O[C@H](C)C(=O)N4CC5CCC(C4)N5C)ccc23)c(C)c1,Activity,[1],3.17%
same,Activity,[2],inactive
same,IC50,[3],30800 nM
same,Activity,[4],85.51%
same,inhibition,[5],inactive
same,IC50,[6],31500 nM
same,Activity,[7],Non-Toxic
same,Activity,[8],Non-Toxic
same,Activity,[9],inactive
same,Cmax,[10],364 ng/mL
same,Activity,[11],inactive
same,"efflux ratio at 2 h, 3 µM",[12],1.2
same,inhibition,[13],inactive
same,Activity,[14],Non-Toxic
same,Activity,[15],inactive
same,Activity,[16],inactive
same,Activity,[17],Non-Toxic
same,IC50,[18],> 50000 nM
same,inhibition at 0.5 µM,[19],15%
same,Activity,[20],inactive
same,IC50,[21],> 10000 nM
same,Activity,[22],Non-Toxic
same,Activity,[23],4.01%
same,Activity,[24],5.11%
same,inhibition,[25],Active
same,MRT,[26],3.3 h
same,IC50,[27],88 nM
same,AUC(0-inf),[28],439 ng·h/mL
same,IC50,[29],721 nM
same,Activity,[30],2.29%
same,IC50,[31],832 nM
same,IC50,[32],132 nM
same,Activity,[33],87.12%
same,Activity,[34],3.73%
same,inhibition,[35],inactive
same,IC50,[36],152 nM
same,Activity,[37],inactive
